Experimental findings from PubChem BioAssay AID328 (DTP/NCI, 2004) are described below.

The assay concerns BDF1 mice, P388 leukemia ip, median survival T/C. Nature of the assay: NCI In Vivo Anticancer Drug Screen. Data for tumor model P388 Leukemia (intraperitoneal) in B6D2F1 (BDF1) mice. The note with it: endpoint: median survival time, higher = longer survival. In short, it runs like this: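 Antitumour effect was judged in vivo: survival in drug-treated mice, normalised to that of vehicle-dosed controls, gives the reported T/C.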

The mark [1] stands for this setting: dose: 50.0 mg/kg/injection, schedule: Q01DX009 (ip), vehicle: saline with Tween-80.
Setting [2] is: dose: 100.0 mg/kg/injection, schedule: Q01DX009 (ip), vehicle: saline with Tween-80.
[3] abbreviates: dose: 200.0 mg/kg/injection, schedule: Q01DX009 (ip), vehicle: saline with Tween-80.

Each structure is given as a SMILES string. Values joined by “and” are separate entries in the source; they are usually repeats but may differ in a detail not shown here. Equal entries are not always repeated. Inconclusive results and toxic doses are left out.

Take `CC1(C)N=C(N)N=C(N)N1c1ccc(CCCCc2ccc(Cl)cc2Cl)cc1`: the T/C was 118 % of control (dose: 4.0 mg/kg/injection, schedule: Q01DX009 (ip), vehicle: saline); 91 % of control (dose: 25.0 mg/kg/injection, schedule: Q01DX002 (ip), vehicle: saline); 103 % of control (dose: 50.0 mg/kg/injection, schedule: Q01DX002 (ip), vehicle: saline).

Regarding `CC#CC#C/C=C1\OC2(CCCCO2)C(OC(C)=O)C1OC(C)=O` (centres undefined), the T/C is 98 % of control (dose: 10.0 mg/kg/injection, schedule: Q01DX009 (ip), vehicle: Klucel (hydroxypropylcellulose) (HPC)); 98 % of control (dose: 20.0 mg/kg/injection, schedule: Q01DX009 (ip), vehicle: Klucel (hydroxypropylcellulose) (HPC)); 115 % of control (dose: 40.0 mg/kg/injection, schedule: Q01DX009 (ip), vehicle: Klucel (hydroxypropylcellulose) (HPC)).

For the compound `CCCCSC1=CC(=O)c2ccccc2C1=O`, the T/C was 92 % of control and 104 % of control (dose: 3.12 mg/kg/injection, schedule: Q01DX009 (ip), vehicle: Klucel (hydroxypropylcellulose) (HPC)); 100 % of control and 116 % of control (dose: 6.25 mg/kg/injection, schedule: Q01DX009 (ip), vehicle: Klucel (hydroxypropylcellulose) (HPC)); 100 % of control and 107 % of control and 108 % of control (dose: 12.5 mg/kg/injection, schedule: Q01DX009 (ip), vehicle: Klucel (hydroxypropylcellulose) (HPC)).

With `CN(N/C=N/S(=O)(=O)c1ccccc1)c1ccccc1`, the T/C is 94 % of control under setting [1] and 93 % of control under setting [2].

`CC(=O)CC(C)=O.CC(=O)CC(C)=O.Cc1c[nH]cn1.O=N[O-].[Co]`: the T/C (dose: 100.0 mg/kg/injection, schedule: Q04DX002 (ip), vehicle: saline with Tween-80) was 107 % of control and the T/C (dose: 200.0 mg/kg/injection, schedule: Q04DX002 (ip), vehicle: saline with Tween-80) was 124 % of control.

Turning to `OC(CI)C(O)C(O)C(O)CI` (centres undefined), the T/C under setting [2] is 108 % of control; the T/C (dose: 100.0 mg/kg/injection, schedule: Q01DX009 (ip), vehicle: saline) was 102 % of control; the T/C under setting [3] is 102 % of control; the T/C (dose: 200.0 mg/kg/injection, schedule: Q01DX009 (ip), vehicle: saline) was 109 % of control; the T/C (dose: 300.0 mg/kg/injection, schedule: Q01DX009 (ip), vehicle: saline with Tween-80) was 150 % of control; the T/C (dose: 400.0 mg/kg/injection, schedule: Q01DX009 (ip), vehicle: saline with Tween-80) was 122 % of control. Also, the T/C was 109 % of control (dose: 400.0 mg/kg/injection, schedule: Q01DX009 (ip), vehicle: saline) and 118 % of control (dose: 600.0 mg/kg/injection, schedule: Q01DX009 (ip), vehicle: saline).

Regarding `CC[n+]1ccc(Nc2ccc(NC(=O)c3ccc(Nc4cc[n+](CC)c5ccc(N)cc45)cc3)cc2)cc1`, the T/C is 115 % of control (dose: 0.02 mg/kg/injection, schedule: Q01DX010 (ip), vehicle: saline); 110 % of control (dose: 0.1 mg/kg/injection, schedule: Q01DX010 (ip), vehicle: saline); 154 % of control (dose: 0.5 mg/kg/injection, schedule: Q01DX009 (ip), vehicle: water); 170 % of control (dose: 0.5 mg/kg/injection, schedule: Q01DX010 (ip), vehicle: saline); 158 % of control (dose: 1.0 mg/kg/injection, schedule: Q01DX009 (ip), vehicle: water); 195 % of control (dose: 1.0 mg/kg/injection, schedule: Q01DX010 (ip), vehicle: saline). Besides, the T/C is, setting by setting: (dose: 2.0 mg/kg/injection, schedule: Q01DX009 (ip), vehicle: water) 212 % of control; (dose: 2.0 mg/kg/injection, schedule: Q01DX010 (ip), vehicle: saline) 275 % of control; (dose: 4.0 mg/kg/injection, schedule: Q01DX009 (ip), vehicle: water) 250 % of control; (dose: 4.0 mg/kg/injection, schedule: Q01DX010 (ip), vehicle: saline) 120 % of control; (dose: 8.0 mg/kg/injection, schedule: Q01DX009 (ip), vehicle: water) 116 % of control; (dose: 8.0 mg/kg/injection, schedule: Q01DX010 (ip), vehicle: saline) 100 % of control.

Regarding `C=CCN(CC=C)P(=O)(N1CC1C)N1CC1C` (centres undefined), the T/C is, setting by setting: (dose: 0.2 mg/kg/injection, schedule: Q01DX009 (ip), vehicle: saline) 101 % of control; (dose: 0.4 mg/kg/injection, schedule: Q01DX009 (ip), vehicle: saline) 106 % of control.

Regarding `CCSC(CC(C)=O)c1ccc(Cl)c(Cl)c1` (centres undefined), the T/C by setting is: under setting [1], 104 % of control; under setting [2], 107 % of control; under setting [3], 118 % of control.

In the case of `CC(C(=O)c1ccc(Cl)cc1)C(O)(C(F)(F)F)C(F)(F)F` (centres undefined), the T/C (dose: 100.0 mg/kg/injection, schedule: Q01DX001 (ip), vehicle: Klucel (hydroxypropylcellulose) (HPC)) was 100 % of control; the T/C (dose: 200.0 mg/kg/injection, schedule: Q01DX001 (ip), vehicle: Klucel (hydroxypropylcellulose) (HPC)) is 113 % of control; the T/C (dose: 400.0 mg/kg/injection, schedule: Q01DX001 (ip), vehicle: Klucel (hydroxypropylcellulose) (HPC)) was 113 % of control.

In the case of `CC1=CC(=Nc2ccc(N(C)C)cc2)C=CC1=O`, the T/C is, setting by setting: (dose: 3.13 mg/kg/injection, schedule: Q01DX009 (ip), vehicle: suspension in saline) 98 % of control; (dose: 6.25 mg/kg/injection, schedule: Q01DX009 (ip), vehicle: suspension in saline) 117 % of control; (dose: 12.5 mg/kg/injection, schedule: Q01DX009 (ip), vehicle: suspension in saline) 123 % of control; (dose: 25.0 mg/kg/injection, schedule: Q01DX009 (ip), vehicle: suspension in saline) 117 % of control.

Regarding `C[P+](C)(c1ccccc1)c1ccccc1`, the T/C was 100 % of control (dose: 6.25 mg/kg/injection, schedule: Q04DX003 (ip), vehicle: saline with Tween-80) and 104 % of control (dose: 12.5 mg/kg/injection, schedule: Q04DX003 (ip), vehicle: saline with Tween-80).

Regarding `CCC(=O)OCC(=O)[C@]1(O)Cc2c(O)c3c(c(O)c2[C@@H](OC2CC(N)C(O)C(C)O2)C1)C(=O)c1c(OC)cccc1C3=O` (some centres undefined), the T/C reads like this: (dose: 0.12 mg/kg/injection, schedule: Q01DX009 (ip), vehicle: saline) 170 % of control; (dose: 0.25 mg/kg/injection, schedule: Q01DX009 (ip), vehicle: saline) 201 % of control; (dose: 0.5 mg/kg/injection, schedule: Q01DX009 (ip), vehicle: saline) 219 % of control; (dose: 1.0 mg/kg/injection, schedule: Q01DX009 (ip), vehicle: saline) 186 % of control; (dose: 2.0 mg/kg/injection, schedule: Q01DX009 (ip), vehicle: saline) 241 % of control; (dose: 7.5 micrograms/kg/injection, schedule: Q01DX009 (ip), vehicle: saline) 102 % of control. In addition, the T/C was 107 % of control (dose: 15.0 micrograms/kg/injection, schedule: Q01DX009 (ip), vehicle: saline); 118 % of control (dose: 30.0 micrograms/kg/injection, schedule: Q01DX009 (ip), vehicle: saline); 170 % of control (dose: 60.0 micrograms/kg/injection, schedule: Q01DX009 (ip), vehicle: saline).

For `CC(C)(C)OC(=O)NC(CCC(=O)O)(Cc1ccccc1)C(=O)NC(CCC(=O)O)(Cc1ccccc1)C(=O)OCc1ccccc1` (centres undefined), the T/C (dose: 200.0 mg/kg/injection, schedule: Q01DX005 (ip), vehicle: saline with Tween-80) was 90 % of control.

With `CSC1SCC2C(=O)N(C)C(C(C)C)C(=O)OCC(NC(=O)c3cnc4ccccc4n3)C(=O)NC(C)C(=O)N(C)C1C(=O)N(C)C(C(C)C)C(=O)OCC(NC(=O)c1cnc3ccccc3n1)C(=O)NC(C)C(=O)N2C` (centres undefined), the T/C (dose: 0.4 micrograms/kg/injection, schedule: Q01DX009 (ip), vehicle: saline with Tween-80) is 86 % of control; the T/C (dose: 0.9 micrograms/kg/injection, schedule: Q01DX009 (ip), vehicle: saline with Tween-80) is 89 % of control; the T/C (dose: 1.9 micrograms/kg/injection, schedule: Q01DX009 (ip), vehicle: saline with Tween-80) was 112 % of control; the T/C (dose: 3.8 micrograms/kg/injection, schedule: Q01DX009 (ip), vehicle: saline with Tween-80) was 96 % of control; the T/C (dose: 5.0 micrograms/kg/injection, schedule: Q01DX010 (ip), vehicle: saline) was 118 % of control; the T/C (dose: 20.0 micrograms/kg/injection, schedule: Q01DX010 (ip), vehicle: saline) was 95 % of control. For the same compound, where the note is “dose: 30.0 micrograms/kg/injection, schedule: Q01DX009 (ip), vehicle: saline with Tween-80”, the T/C was 175 % of control.
